ChEMBL document CHEMBL1201862, “PubChem BioAssay data set” (2004)
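Interpolation was linear, between the two tested concentrations surrounding the appropriate level; five concentrations were tested over 48 hours in 96-well plates. GI50 is the concentration that inhibits growth by half.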 The source made the active and inactive calls. Cut-off read from the data, not from the text of the source: active = GI50 up to about 1.1 µM and inactive = higher.

Key:
Test in all cases: DTP human tumour cell line panel, 48 h
[1] = system: SF-295
[2] = system: SW-620
[3] = system: LOX IMVI
[4] = system: COLO 205
[5] = system: NCI-H23
[6] = system: A549
[7] = system: HCT-116
[8] = system: UO-31
[9] = system: SN12C
[10] = system: U-251
[11] = system: OVCAR-3
[12] = system: HOP-92
[13] = system: SR
[14] = system: HT-29
[15] = system: UACC-62
[16] = system: SK-MEL-5
[17] = system: SK-MEL-2

Measured: GI50

CC1=C/C(=C2/N=C(N(C)C)SS2)C(C)=N1.[O-][Cl+3]([O-])([O-])O
inactive: [1] > 100 µM | [2] > 100 µM | [3] 37.3 µM | [4] 3.07 µM | [5] 6.47 µM | [6] > 100 µM | [7] > 100 µM | [8] > 100 µM | [9] > 100 µM | [10] > 100 µM | [11] > 100 µM | [12] > 100 µM | [13] > 100 µM | [14] > 100 µM

COc1nc2c(nc(N)n2C2OC(CO)C(O)C(O)C2O)c(=O)[nH]1 (centres undefined)
inactive: [1] > 100 µM | [2] > 100 µM | [15] > 100 µM | [3] > 100 µM | [4] > 100 µM | [5] > 100 µM | [6] > 100 µM | [7] > 100 µM | [8] > 100 µM | [9] > 100 µM | [10] > 100 µM | [11] > 100 µM | [16] > 100 µM | [12] > 100 µM | [13] > 100 µM | [14] > 100 µM

N=C(N)NS(=O)(=O)c1ccc(NC(=O)c2cccn3c(=O)c4ccccc4nc23)cc1
inactive: [1] 85.5 µM | [2] 51.5 µM | [15] 32.9 µM | [3] 33.7 µM | [4] 18.2 µM | [5] 38 µM | [6] 45.6 µM | [7] 40.8 µM | [8] 55.1 µM | [9] 70.8 µM | [10] > 100 µM | [11] > 100 µM | [16] 27 µM | [12] > 100 µM | [13] 24.5 µM | [14] 23.2 µM

COc1ccc(OC)c2c(C(=O)O)c(Cc3ccccc3)ccc12
inactive: [1] > 100 µM | [2] > 100 µM | [15] > 100 µM | [3] > 100 µM | [4] > 100 µM | [5] > 100 µM | [6] > 100 µM | [7] > 100 µM | [8] > 100 µM | [9] > 100 µM | [17] > 100 µM | [10] > 100 µM | [11] > 100 µM | [16] > 100 µM | [13] > 100 µM | [14] > 100 µM

C(=C\c1cc(CCc2nc3ccccc3[nH]2)n[nH]1)/c1ccccc1
inactive: [1] > 100 µM | [2] > 100 µM | [15] > 100 µM | [3] > 100 µM | [4] > 100 µM | [5] > 100 µM | [6] > 100 µM | [7] > 100 µM | [8] > 100 µM | [9] > 100 µM | [10] > 100 µM | [11] > 100 µM | [16] > 100 µM | [12] > 100 µM | [13] > 100 µM | [14] > 100 µM

CCCCCCCCCCCCOC(=S)NC
inactive: [1] 25.9 µM | [2] 18.3 µM | [15] 17.1 µM | [3] 14.1 µM | [5] 20.4 µM | [7] 16.9 µM | [8] 19 µM | [9] 17.7 µM | [17] 14.6 µM | [10] 18.3 µM | [12] 15.5 µM | [13] 14.1 µM | [14] 18.6 µM

COC1C=C(Nc2cccc(Cl)c2)C(=O)C1 (centres undefined)
inactive: [1] 54 µM | [2] 53.2 µM | [15] 60 µM | [3] > 100 µM | [4] 10.4 µM | [5] 41.5 µM | [6] 18.5 µM | [7] 40.2 µM | [8] 41.2 µM | [9] 64.9 µM | [17] 71 µM | [10] 32.3 µM | [11] 65.3 µM | [16] 83 µM | [12] 39.5 µM | [13] 58.3 µM | [14] 65.3 µM

COC(=O)C(CC(=O)c1ccccc1)c1ccccc1NC(C)=O (centres undefined)
inactive: [1] > 100 µM | [2] > 100 µM | [15] > 100 µM | [3] > 100 µM | [4] > 100 µM | [5] > 100 µM | [6] > 100 µM | [7] > 100 µM | [8] 29.9 µM | [9] > 100 µM | [10] > 100 µM | [11] > 100 µM | [16] > 100 µM | [12] > 100 µM | [13] > 100 µM | [14] > 100 µM

CC(=O)Nc1ccc(/C=c2\sc3nnc(CCC(=O)Nc4ccccc4Cl)n3c2=O)cc1
inactive: [1] 18.1 µM | [2] 27 µM | [15] 23.9 µM | [3] 17.2 µM | [5] 46.3 µM | [6] 30.4 µM | [7] 37.7 µM | [8] > 100 µM | [9] 39.6 µM | [17] 31.9 µM | [10] 17.9 µM | [11] 21.6 µM | [16] 25 µM | [12] 27.4 µM | [13] 20.3 µM | [14] 54.2 µM

COc1cc2c(cc1OC)C1[C@@H](c3ccccc3)OCN1CC2 (some centres undefined)
inactive: [1] > 100 µM | [2] 56.8 µM | [15] > 100 µM | [3] > 96.2 µM | [4] 91.2 µM | [5] > 100 µM | [6] > 100 µM | [7] > 82.2 µM | [8] > 100 µM | [9] > 100 µM | [17] > 100 µM | [10] > 100 µM | [11] > 100 µM | [16] > 96.4 µM | [12] 83.4 µM | [13] > 88.7 µM | [14] > 100 µM

C=CCOCCCC(=O)C(=[N+]=[N-])C(=O)OC
inactive: [1] > 100 µM | [2] > 100 µM | [15] > 100 µM | [3] > 100 µM | [4] > 100 µM | [5] > 100 µM | [6] > 100 µM | [7] > 100 µM | [8] > 100 µM | [9] > 100 µM | [17] > 100 µM | [10] > 100 µM | [11] > 100 µM | [16] > 100 µM | [12] > 100 µM | [13] > 100 µM | [14] > 100 µM

CCCC(=O)c1c(NOC2OCC(OC(C)=O)C(OC(C)=O)C2OC(C)=O)nc(OC)n(C)c1=O (centres undefined)
inactive: [1] > 100 µM | [2] > 100 µM | [15] > 100 µM | [3] > 100 µM | [4] > 100 µM | [5] > 100 µM | [6] > 100 µM | [7] > 100 µM | [8] > 100 µM | [9] > 100 µM | [10] > 100 µM | [11] > 100 µM | [16] > 100 µM | [12] > 100 µM | [13] > 100 µM | [14] > 100 µM

Cc1cccc2c3ccc4c(c3n(C)c12)C(=O)C=CC4=O
inactive: [1] > 100 µM | [2] > 100 µM | [15] 59.7 µM | [4] > 100 µM | [5] 18.6 µM | [6] > 100 µM | [7] > 100 µM | [8] 28.9 µM | [9] > 100 µM | [17] > 100 µM | [11] > 100 µM | [12] > 100 µM | [13] 29.3 µM | [14] > 100 µM
